Values quoted from earlier work, collected in patent publication US20090263333A1, “Pharmaceutical compounds and compositions” (Cipla Limited, priority 2004, published 2009).

Conditions: dose comparison with racemic salbutamol

In the case of CC(C)(C)NC[C@H](O)c1ccc(O)c(CO)c1 [Levosalbutamol, levosalbutamol], the “efficacy relative to racemic salbutamol” value is given as “comparable efficacy at nearly one-fourth the dose of racemic salbutamol”.
